Data published in ChEMBL document CHEMBL4706520, “Development of disulfide-derived fructose-1,6-bisphosphatase (FBPase) covalent inhibitors for the treatment of type 2 diabetes” (Eur J Med Chem, 2020).
Values belong to the compound of their own block, whether it stands above or below them. Activity calls are given as the source filed them. The rule behind the calls is not given here.

Columns and labels:
[1] = molecular target: T1, Fructose-1,6-bisphosphatase 1 (Homo sapiens) (UniProt P09467); assay: Inhibition of wild-type full-length human liver FBPase expressed in Escherichia coli BL21 (DE3) using FBP as substrate at 10 uM by malachite green dye-based assay; type: single protein
T1 sequence (whole entry): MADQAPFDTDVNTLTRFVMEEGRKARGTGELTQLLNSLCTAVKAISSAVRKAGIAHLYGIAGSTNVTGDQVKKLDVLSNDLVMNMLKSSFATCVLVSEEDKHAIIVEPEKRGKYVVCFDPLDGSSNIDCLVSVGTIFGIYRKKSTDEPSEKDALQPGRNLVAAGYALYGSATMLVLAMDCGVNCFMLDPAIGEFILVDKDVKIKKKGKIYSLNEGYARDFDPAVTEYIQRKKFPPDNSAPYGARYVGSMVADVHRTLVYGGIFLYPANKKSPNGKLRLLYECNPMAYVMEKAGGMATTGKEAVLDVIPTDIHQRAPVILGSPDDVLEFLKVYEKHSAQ

c1csc(SSc2nccs2)n1 [2] = assay: Covalent inhibition of FBPase C38S mutant (unknown origin) assessed as Vmax measured at 45 mins by UV-visible spectrometry analysis; conditions: Homo sapiens
c1csc(SSc2nccs2)n1 [3] = assay: Covalent inhibition of FBPase C92S mutant (unknown origin) assessed as Vmax measured upto 45 mins by UV-visible spectrometry analysis; conditions: Homo sapiens
c1csc(SSc2nccs2)n1 [4] = assay: Covalent inhibition of FBPase C116S mutant (unknown origin) assessed as Vmax measured upto 45 mins by UV-visible spectrometry analysis; conditions: Homo sapiens
c1csc(SSc2nccs2)n1 [5] = assay: Covalent inhibition of FBPase C128S mutant (unknown origin) assessed as Vmax measured upto 45 mins by UV-visible spectrometry analysis; conditions: Homo sapiens; time min <=45
c1csc(SSc2nccs2)n1 [6] = assay: Covalent inhibition of FBPase C179S mutant (unknown origin) assessed as Vmax measured upto 45 mins by UV-visible spectrometry analysis; conditions: Homo sapiens; time min <=45
c1csc(SSc2nccs2)n1 [7] = assay: Covalent inhibition of FBPase C281S mutant (unknown origin) assessed as Vmax measured upto 45 mins by UV-visible spectrometry analysis; conditions: Homo sapiens; time min <=45
c1csc(SSc2nccs2)n1 [8] = assay: Covalent inhibition of FBPase S124A mutant (unknown origin) assessed as Vmax measured upto 45 mins by UV-visible spectrometry analysis; conditions: Homo sapiens; time min <=45
c1csc(SSc2nccs2)n1 [9] = assay: Covalent inhibition of FBPase N125A mutant (unknown origin) assessed as Vmax measured upto 45 mins by UV-visible spectrometry analysis; conditions: Homo sapiens; time min <=45
c1csc(SSc2nccs2)n1 [10] = assay: Covalent inhibition of FBPase D127A mutant (unknown origin) assessed as Vmax measured upto 45 mins by UV-visible spectrometry analysis; conditions: Homo sapiens; time min <=45
c1csc(SSc2nccs2)n1 [11] = assay: Covalent inhibition of FBPase R243A mutant (unknown origin) assessed as Vmax measured upto 45 mins by UV-visible spectrometry analysis; conditions: Homo sapiens; time min <=45
c1csc(SSc2nccs2)n1 [12] = assay: Covalent inhibition of FBPase R254A mutant (unknown origin) assessed as Vmax measured upto 45 mins by UV-visible spectrometry analysis; conditions: Homo sapiens; time min <=45
c1csc(SSc2nccs2)n1 [13] = assay: Covalent inhibition of FBPase Y258A mutant (unknown origin) assessed as Vmax measured upto 45 mins by UV-visible spectrometry analysis; conditions: Homo sapiens; time min <=45
c1csc(SSc2nccs2)n1 [14] = assay: Covalent inhibition of FBPase C183S (unknown origin) assessed as Vmax measured upto 45 mins; conditions: Homo sapiens; time min <=45
c1csc(SSc2nccs2)n1 [15] = assay: Covalent inhibition of FBPase C183S (unknown origin) upto 45 mins; conditions: Homo sapiens; time min <=45
Mus musculus [16] = assay: Suppression of blood glucose concentration in 12 hrs fasted ICR mouse model at 12.5 mg/kg, ip measured upto 120 mins after oral administration of glucose at 2 g/kg for 60 min by oral glucose tolerance test; type: functional, organism-based
Mus musculus [17] = assay: Suppression of blood glucose concentration in 12 hrs fasted ICR mouse model at 25 mg/kg, ip measured upto 120 mins after oral administration of glucose at 2 g/kg for 60 min by oral glucose tolerance test; type: functional, organism-based
Mus musculus [18] = assay: Suppression of blood glucose concentration in 12 hrs fasted db/db mouse model at 12.5 mg/kg, ip measured upto 120 mins after oral administration of glucose at 2 g/kg for 60 min by oral glucose tolerance test; type: functional, organism-based
Mus musculus [19] = assay: Hypoglycemic activity in 2 hrs fasted db/db mouse model assessed as reduction in blood glucose AUC at 12.5 mg/kg, ip measured upto 120 mins after oral administration of glucose at 2 g/kg for 60 min by oral glucose tolerance test; type: functional, organism-based
Mus musculus [20] = assay: Hypoglycemic activity in 2 hrs fasted db/db mouse model assessed as reduction in blood glucose AUC at 25 mg/kg, ip measured upto 120 mins after oral administration of glucose at 2 g/kg for 60 min by oral glucose tolerance test; type: functional, organism-based
Homo sapiens [21] = species: Homo sapiens; assay: Selectivity index, ratio of IC50 for FBPase S124A mutant IC50 for FBPase WT (unknown origin)
Homo sapiens [22] = species: Homo sapiens; assay: Selectivity index, ratio of IC50 for FBPase N125A mutant IC50 for FBPase WT (unknown origin)
Homo sapiens [23] = species: Homo sapiens; assay: Selectivity index, ratio of IC50 for FBPase D127A mutant IC50 for FBPase WT (unknown origin)
Homo sapiens [24] = species: Homo sapiens; assay: Selectivity index, ratio of IC50 for FBPase R243A mutant IC50 for FBPase WT (unknown origin)
Homo sapiens [25] = species: Homo sapiens; assay: Selectivity index, ratio of IC50 for FBPase R254A mutant IC50 for FBPase WT (unknown origin)
Homo sapiens [26] = species: Homo sapiens; assay: Selectivity index, ratio of IC50 for FBPase Y258A mutant IC50 for FBPase WT (unknown origin)
Homo sapiens [27] = species: Homo sapiens; assay: Selectivity index, ratio of IC50 for FBPase C38S mutant IC50 for FBPase WT (unknown origin)
Homo sapiens [28] = species: Homo sapiens; assay: Selectivity index, ratio of IC50 for FBPase C92S mutant IC50 for FBPase WT (unknown origin)
Homo sapiens [29] = species: Homo sapiens; assay: Selectivity index, ratio of IC50 for FBPase C116S mutant IC50 for FBPase WT (unknown origin)
Homo sapiens [30] = species: Homo sapiens; assay: Selectivity index, ratio of IC50 for FBPase C128S mutant IC50 for FBPase WT (unknown origin)
Homo sapiens [31] = species: Homo sapiens; assay: Selectivity index, ratio of IC50 for FBPase C179S mutant IC50 for FBPase WT (unknown origin)
Homo sapiens [32] = species: Homo sapiens; assay: Selectivity index, ratio of IC50 for FBPase C183S mutant IC50 for FBPase WT (unknown origin)
Homo sapiens [33] = species: Homo sapiens; assay: Selectivity index, ratio of IC50 for FBPase WT (unknown origin) to IC50 for FBPase […] mutant IC50 for FBPase WT (unknown origin)
Hepatocyte = assay: Inhibition of gluconeogenesis in C57BLKS mouse primary hepatocytes assessed as inhibition of glucose output measured after 6 hrs; type: functional, cell-based; conditions: dose 0.5-100 µmol/L
[34] = molecular target: T1, Fructose-1,6-bisphosphatase 1 (Homo sapiens); assay: Covalent binding affinity to FBPase WT (unknown origin) assessed as maximum peak absorption measured upto 45 mins by UV-visible spectroscopy (reference value: 283 nm); conditions: time min <=45

Compound: CN(C(=S)SSC(=S)N(C)c1ccccc1)c1ccccc1
inhibition [1]: 35.7%

Compound: S=C(SSC(=S)N1CCOCC1)N1CCOCC1
inhibition [1]: 26.1%

Compound: Fructose-1,6-bisphosphatase 1 (Homo sapiens) (from UniProt P09467) UNDEFINED MUTATION
Vmax (c1csc(SSc2nccs2)n1 [2]): 2.7 U/mg
Vmax (c1csc(SSc2nccs2)n1 [3]): 1.6 U/mg
Vmax (c1csc(SSc2nccs2)n1 [4]): 1.6 U/mg
Vmax (c1csc(SSc2nccs2)n1 [5]): 2.7 U/mg
Vmax (c1csc(SSc2nccs2)n1 [6]): 2.3 U/mg
Vmax (c1csc(SSc2nccs2)n1 [7]): 3.6 U/mg
Vmax (c1csc(SSc2nccs2)n1 [8]): 5 U/mg
Vmax (c1csc(SSc2nccs2)n1 [9]): 1.5 U/mg
Vmax (c1csc(SSc2nccs2)n1 [10]): 1.9 U/mg
Vmax (c1csc(SSc2nccs2)n1 [11]): 2.5 U/mg
Vmax (c1csc(SSc2nccs2)n1 [12]): 3.5 U/mg
Vmax (c1csc(SSc2nccs2)n1 [13]): 5 U/mg
Vmax (c1csc(SSc2nccs2)n1 [14]): 3.8 U/mg
Vmax (c1csc(SSc2nccs2)n1 [15]): 0.21 U/mg

Compound: CCN(CC)C(=S)SC(=S)N(CC)CC
inhibition [1]: 18%

Compound: CC(C)N(C(=S)SSC(=S)N(C(C)C)C(C)C)C(C)C
inhibition [1]: 47.8%

Compound: O=C(O)C1CCN(C(=S)SSC(=S)N2CCC(C(=O)O)CC2)CC1
inhibition [1]: 47.6%

Compound: CN1CCN(C(=S)SSC(=S)N2CCN(C)CC2)CC1
inhibition [1]: 26.2%

Compound: c1ccc(SSc2ccccc2)cc1
inhibition [1]: 10.4%

Compound: S=C(SSC(=S)n1c2ccccc2c2ccccc21)n1c2ccccc2c2ccccc21
inhibition [1]: 39.7%

Compound: S=C(SSC(=S)N1CC2CCCCC2C1)N1CC2CCCCC2C1 (centres undefined)
inhibition [1]: 37.2%

Compound: S=C(SSC(=S)N1CCCc2ccccc21)N1CCCc2ccccc21
inhibition [1]: 9.87%

Compound: S=C(SSC(=S)N1CCC1)N1CCC1
inhibition [1]: 28.5%

Compound: S=C(SSC(=S)N1CCc2ccccc2C1)N1CCc2ccccc2C1
inhibition [1]: 38.4%

Now from value to compound, other results behind:

inhibition [1]: 44.7%
Compound: COc1ccc2nc(SSc3nc4ccc(OC)cc4s3)sc2c1

inhibition [1]: 12.4%
Compound: CCN(CC)C(=S)SCSC(=S)N(CC)CC

inhibition [1]: 39.9%
Compound: S=C(SSC(=S)N1CCc2ccccc21)N1CCc2ccccc21

inhibition [1]: 9.65%
Compound: Cn1ccnc1SSc1nccn1C

inhibition [1]: 2.59%
Compound: CCN(CC)C(=O)SSC(=O)N(CC)CC

inhibition [1]: 13.6%
Compound: CCCN(CCC)C(=S)SSC(=S)N(CCC)CCC

inhibition [1]: 18%
Compound: Clc1ccc(SSc2ccc(Cl)cc2)cc1

inhibition [1]: 34.3%
Compound: c1csc(SSC2CCCC2)n1

inhibition [1]: 21.4%
Compound: CCN(CC)C(=S)CSC(=S)N(CC)CC

inhibition [1]: 12.4%
Compound: C1CCC(SSC2CCCCC2)CC1

inhibition [1]: 18.4%
Compound: O=[N+]([O-])c1ccc2nc(SSc3nc4ccc([N+](=O)[O-])cc4s3)sc2c1

inhibition [1]: 47.6%
Compound: S=C(SSC(=S)n1ncc2ccccc21)n1ncc2ccccc21

Ratio IC50 (Homo sapiens [21]): 1.7
Ratio IC50 (Homo sapiens [22]): > 926
Ratio IC50 (Homo sapiens [23]): 0.7
Ratio IC50 (Homo sapiens [24]): > 1
Ratio IC50 (Homo sapiens [25]): 2.3
Ratio IC50 (Homo sapiens [26]): 11.5
Ratio IC50 (Homo sapiens [27]): 1.1
Ratio IC50 (Homo sapiens [28]): 0.5
Ratio IC50 (Homo sapiens [29]): 0.7
Ratio IC50 (Homo sapiens [30]): > 1850
Ratio IC50 (Homo sapiens [31]): 0.6
Ratio IC50 (Homo sapiens [32]): 0.8
Ratio IC50 (Homo sapiens [33]): 0.7
lambda max [34]: 306 nm
Compound: c1csc(SSc2nccs2)n1
inhibition (Mus musculus [16]): Active
inhibition (Mus musculus [17]): Active
inhibition (Mus musculus [18]): Active
inhibition (Mus musculus [19]): Active
inhibition (Mus musculus [20]): Active
inhibition (Hepatocyte): Dose-dependent effect

inhibition [1]: 3.09%
Compound: CN(Cc1ccccc1)C(=S)SSC(=S)N(C)Cc1ccccc1

inhibition [1]: 29.4%
Compound: Cc1cccn1C(=S)SSC(=S)n1cccc1C

inhibition [1]: 50.6%
Compound: c1csc(SSc2cccs2)c1

inhibition [1]: 32.4%
Compound: CN(C(=S)SSC(=S)N(C)c1ccc(-c2ccccc2)cc1)c1ccc(-c2ccccc2)cc1

inhibition [1]: 3.22%
Compound: CCN(CC)C(=O)CSC(=S)N(CC)CC

inhibition [1]: 37.7%
Compound: C[C@@H]1CN(C(=S)SSC(=S)N2C[C@@H](C)O[C@@H](C)C2)C[C@H](C)O1
